Measured values as given in patent publication EP4786466A1, “QUINAZOLINE DERIVATIVE, SALT THEREOF, AND PHARMACEUTICAL COMPOSITION COMPRISING SAME AS ACTIVE INGREDIENT” (Korea Research Institute of Chemical Technology, priority 2023, dated 2025).
Read-outs that look alike come from different tables or passages of the source.

Experiments:
[1] = biological target: T1, Recombinant GST-TAG-MASTL (Homo sapiens, UniProt Q96GX5); assay: HTRF-based kinase assay (HTRF KinEASE assay kit); format: biochemical; details: for activity at 1 µM: read-out: MASTL activity (%) HTRF (1 µM)
T1 construct: GST; purchased Thermo Fisher Scientific
T1 sequence (Q96GX5 1-879): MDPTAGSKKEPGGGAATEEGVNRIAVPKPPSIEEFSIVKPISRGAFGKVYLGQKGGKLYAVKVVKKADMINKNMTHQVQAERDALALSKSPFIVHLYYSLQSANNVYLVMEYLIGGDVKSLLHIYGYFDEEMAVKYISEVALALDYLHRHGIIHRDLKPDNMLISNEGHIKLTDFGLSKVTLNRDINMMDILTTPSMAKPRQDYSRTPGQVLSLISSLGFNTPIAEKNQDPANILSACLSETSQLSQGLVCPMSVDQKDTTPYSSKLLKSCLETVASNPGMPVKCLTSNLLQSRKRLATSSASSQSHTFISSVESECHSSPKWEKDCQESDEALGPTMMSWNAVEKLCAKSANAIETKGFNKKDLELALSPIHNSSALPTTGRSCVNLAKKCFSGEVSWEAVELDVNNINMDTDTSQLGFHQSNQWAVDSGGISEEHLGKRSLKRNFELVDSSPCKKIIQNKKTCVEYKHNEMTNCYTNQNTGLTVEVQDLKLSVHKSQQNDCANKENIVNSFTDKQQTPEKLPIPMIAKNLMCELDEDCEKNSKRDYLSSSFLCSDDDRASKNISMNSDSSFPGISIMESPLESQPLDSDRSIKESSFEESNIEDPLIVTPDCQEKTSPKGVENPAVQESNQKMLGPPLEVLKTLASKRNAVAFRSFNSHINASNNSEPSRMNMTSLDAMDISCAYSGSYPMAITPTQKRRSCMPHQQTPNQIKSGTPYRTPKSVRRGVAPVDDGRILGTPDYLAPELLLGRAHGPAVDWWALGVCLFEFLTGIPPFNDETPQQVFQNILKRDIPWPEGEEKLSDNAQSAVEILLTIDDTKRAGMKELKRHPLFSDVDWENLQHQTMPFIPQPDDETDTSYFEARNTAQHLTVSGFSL
Text: Recombinant GST-TAG-MASTL (Thermo Fisher Scientific, MA, USA) was used for HTRF-based kinase assays. The HTRF KinEASE assay kit (CisBio, MA, USA) was used according to the manufacturer's instructions.

pENSA = pENSA level by immunofluorescence (described method: in vitro kinase analysis with GST-tag-MASTL and His-tag-ENSA); format: cell-based; details: compound 1 µM
Description: Two recombinant GST-tag-MASTL (Thermo Fisher Scientific) and His-tag-ENSA (Sino Biological Inc., Beijing, China) were used for in vitro kinase analysis. In vitro kinase analysis was performed as described in the literature [Front Oncol 2020, 10, 571601, 39-202021-10-20doi:10.3389/fonc.2020.571601.].
Phosphorylated ENSA (pENSA), which is activated by phosphorylation by MASTL, can be utilized as a biomarker as it is expected that its activity will be inhibited along with the inhibition of MASTL. In the cell viability assay, MCF7 refers to a breast cancer cell line, and MCF10A refers to a normal breast […] cell line.

in vitro = details: human
Description: (§1) MCF7 breast cancer cell lines and MCF10A normal breast cancer cell lines were treated with serial dilutions of the compounds of the present invention ranging from 1 µM to 15.63 nM for 72 hours. Cell viability was measured by the WST-8 assay (Cyto XTM cell viability assay kit; LPS solution, Daejeon, Korea) according to the manufacturer's instructions.

[2] = system: MCF7 breast cancer cell lines; assay: Cell viability analysis, WST-8 assay, MCF7; details: Homo sapiens, MCF7, 72 h, read-out: Cell viability (%) WST-8, MCF7 (1 µM), compound 1 µM, 72 hours
Description: as §1

| Structure (SMILES) | activity at 1 µM [1] [%] | pENSA (%) Immunofluor ecense (1 µM) (pENSA) [%] | viability at 1 µM (in vitro; mcf10a cells) [%] | viability at 1 µM [2] [%] | activity at 1 µM ([1]; compound 1 µM) [%] | viability at 1 µM (in vitro) [%] | IC50 [1] [nM] |
| --- | --- | --- | --- | --- | --- | --- | --- |
| NCCCCNC(=O)c1ccc(Nc2nc(Nc3cc(C4CC4)[nH]n3)c3ccccc3n2)cc1 [4ac, M-(4-aminobutyl)-4-((4-((5-cyclopropyl-1G-pyrazol-3-yl)amino)quinazolin-2-yl)amino)benzamide.trifluoroacetic acid] | 58.3 | 149 | 102 | 104 |  |  |  |
| CC(C)(C)OC(=O)NCCCNC(=O)c1ccc(Nc2nc(Nc3cc(C4CC4)[nH]n3)c3ccccc3n2)cc1 [4x, sdqs-butyl (3-(4-((4-((5-cyclopropyl-1G-pyrazol-3-yl)amino)quinazolin-2-yl)amino)benzamido)propyl)carbamate] |  | 185 | 80 | 75.8 | 70.8 |  |  |
| CC(C)(C)OC(=O)NCCCCNC(=O)c1ccc(Nc2nc(Nc3cc(C4CC4)[nH]n3)c3ccccc3n2)cc1 [4y, sdqs-butyl (4-(4-((4-((5-cyclopropyl-1G-pyrazol-3-yl)amino)quinazolin-2-yl)amino)benzamido)butyl)carbamate] |  | 164 | 80.2 | 78.7 | 75.3 |  |  |
| c1ccc2c(Nc3cc(C4CC4)[nH]n3)nc(Nc3ccc4cn[nH]c4c3)nc2c1 [compound 4de, N^4-(5-cyclopropyl-1H-pyrazol-3-yl)-N^2-(1H-indazol-6-yl)quinazoline-2,4-diamine] |  |  |  | 44.2 | 31.8 | 24 |  |
| c1ccc2c(Nc3cc(C4CC4)n[nH]3)nc(Nc3ccc4nc[nH]c4c3)nc2c1 [compound 4df, N^2-(1H-benzo[d]imidazol-5-yl)-N^4-(5-cyclopropyl-1H-pyrazol-3-yl)quinazoline-2,4-diamine] |  |  |  | 78.4 | 31.8 | 4.8 |  |
| c1ccc2c(Nc3cc(C4CC4)[nH]n3)nc(Nc3cnc4[nH]ccc4c3)nc2c1 [compound 4dg, N^4-(5-cyclopropyl-1H-pyrazol-3-yl)-N^2-(1H-pyrrolo[2,3-b]pyridin-5-yl)quinazoline-2,4-diamine] |  |  |  | 49 | 37.9 | 12 |  |
| c1ccc2c(Nc3cc(C4CC4)[nH]n3)nc(Nc3cnc4cccnn34)nc2c1 [compound 4dh, N^4-(5-cyclopropyl-1H-pyrazol-3-yl)-N^2-(imidazo[1,2-b]pyridazin-3-yl)quinazoline-2,4-diamine] |  |  |  | 116 | 88.7 | 111 |  |
| N#CCc1ccc(C2=CCN(c3nc(Nc4cc(C5CC5)[nH]n4)c4ccccc4n3)CC2)cc1F [compound 6n, 2-(4-(1-(4-((5-cyclopropyl-1G-pyrazol-3-yl)amino)quinazolin-2-yl)-1,2,3,6-tetrahydropyridin-4-yl)-2-fluorophenyl)acetonitrile] | 30.8 |  | 116 | 110 |  |  | 121 |
| N#Cc1cc(Cl)ccc1C1=CCN(c2nc(Nc3cc(C4CC4)[nH]n3)c3ccccc3n2)CC1 [compound 6o, 5-chloro-2-(1-(4-((5-cyclopropyl-1G-pyrazol-3-yl)amino)quinazolin-2-yl)-1,2,3,6-tetrahydropyridin-4-yl)benzonitrile] | 61.2 |  | 24.9 | 48.4 |  |  |  |
| N#Cc1ccccc1S(=O)(=O)N1CC2CC1CN2c1nc(Nc2cc(C3CC3)[nH]n2)c2ccccc2n1 (centres unmarked) [compound 15v, 2-((5-(4-((5-cyclopropyl-1G-pyrazol-3-yl)amino)quinazolin-2-yl)-2,5-diazabicyclo[2.2.1]heptan-2-yl)sulfonyl)benzonitrile] | 29.5 |  | 81.8 | 80.5 |  |  | 52.7 |
| O=C1CSC(Nc2nc(Nc3ccccc3)nc3ccccc23)=N1 [compound 26b, 2-((2-(phenylamino)quinazolin-4-yl)amino)thiazol-4(5H)-one] |  |  |  | 95.8 | 112 | 98.8 |  |
